The source of these data is patent US20250368700A1, “NOVEL PEPTIDE FOR TREATING AN INFECTIOUS DISEASE OR CONDITION” (OMNIX MEDICAL LTD., priority 2022, published 2025).

≈ marks a conversion by molar mass, not a printed value. Like-named read-outs stand apart in the source and are kept apart here. Where a SMILES comes first, the peptide text is derived from it. Where no end group is shown, it is not given here. [ ]: non-standard residue; d: D form.

Series [1] relates to Escherichia coli ATCC ® 25922 (Sens.). It is filed as cell-based. An excerpt: (§1) As bacterial growth progresses, OD625 nm values raised.
Series [2] has as its system Escherichia coli ATCC ® BAA-2452 (NDM-1). It is filed as cell-based.
Excerpt: as §1

In series [3] the test system is Escherichia coli ATCC ® BAA-3048 (MDR). It is filed as cell-based.
Excerpt: as §1

Series [4] relates to Klebsiella pneumoniae ATCC ® 700603 (Sens.). It counts as cell-based.
Excerpt: as §1

For series [5], the system named is Klebsiella pneumoniae ATCC ® BAA-2146 (NDM-1). It counts as cell-based.
Excerpt: as §1

Series [6] deals with Pseudomonas aeruginosa ATCC ® 27853 (Sens.). It counts as cell-based.
Excerpt: as §1

Series [7] has as its system Pseudomonas aeruginosa ATCC ® BAA-2795 (MDR). It counts as cell-based.
Excerpt: as §1

Series [8] concerns Pseudomonas aeruginosa ATCC ® BAA-2797 (MDR). It is filed as cell-based.
Excerpt: as §1

Series [9] relates to K. pneumoniae strain ATCC® 43816. It is filed as cell-based.
For series [10], the system named is Hsd:ICR (CD-1) mice. Kind of series: Safety of intra-nasal (IN) administration in mice (histopathology, mortality). It is filed as in vivo. The note with it: 100 mg/kg IN. Also noted: key to histopathological findings grade, Spleen / histopathological findings grade, Lungs / histopathological findings grade, Kidneys / histopathological findings grade, Heart / histopathological findings grade, Liver: Grade 0—The tissue appears normal, without any changes at all; Grade 1—Minimal pathological findings; Grade 2—Mild pathological findings; Grade 3—Moderate pathological findings; Grade 4—Severe pathological findings. As for the experimental part: Methods: Adverse effects of OMN71 on mice following intra-Nasal (IN) administration, safety was evaluated by tissue histopathology and mortality. 100 mg/kg of OMN71 in a total volume of 50 μl saline (0.9% NaCl) was administered intranasal (IN) to Hsd:ICR (CD-1) mice (20-25 g) in order to assess the presence any toxic effects. Control mice were administered with saline solution (0.9% NaCl) as vehicle. On the last time-point of each experiment (at T24h), mortality was assessed, the mice were sacrificed by IP injection of Ketamine-Xylazine and spleen, lungs, kidneys, heart and liver were collected for histopathology.
Slides of liver, heart, kidneys, lungs, and spleen were stained with Hematoxylin & Eosin (H&E) and were sent for evaluation. The H&E-stained slides were examined and pictures were taken using microscope equipped with a camera at objective magnification of ×4 and ×10.

Series [11] relates to K. pneumoniae strain ATCC® 43816. As to the kind of experiment: Mouse lung infection model induced by K. pneumoniae, lung bacterial burden. The note with it: neutropenic CD-1 female mice, 100 mg/kg intranasal two hours post-infection, 24 hours. It is filed as in vivo. The procedure: Neutropenic CD-1 female mice were intratracheally inoculated with K. pneumoniae strain ATCC 43816 (75×10^3 CFU/mouse). Two hours post-inoculation, OMN71-treated group was administered by an intranasal injection of 100 mg/kg and the vehicle group was administered with 0.9% saline solution. Bacterial burden in the lungs was evaluated 24 hours post-infection. Control group of untreated mice n=2 (CTRL ▪), vehicle saline treated mice n=3 (vehicle ●), OMN71-treated group at 100 mg/kg n=3 (OMN71 100 mg/kg ▴).
Methods: Female CD-1 mice, weighing between 20-25 g were inoculated with K. pneumoniae bacteria to induce a lung infection. All animals were monitored during the entire period of the study and clinical signs were recorded. Briefly, eight animals were rendered neutropenic by two intraperitoneal injections of cyclophosphamide (Sigma-Aldrich, Italy) at 150 and 100 mg/kg, four and one day before the infection, respectively. […] The mice were anesthetized by IP injection of Ketamine-Xylazine at low dose and intratracheally inoculated with 50 μL of the bacterial suspension (75×10^3 CFU/mouse). Two hours post-infection (T2h), 100 mg/kg OMN71 in a total volume of 50 μl saline (0.9% NaCl) was administered intranasal. […] The mice were monitored during the entire study and scored for clinical signs of infection where no mortality or morbidity were observed.

Series [12] concerns the target Proteinase-K (ProtK) (Parengyodontium album, UniProt P06873). It is filed as in vitro ADME. The conditions noted are these: 2.5 μg protein, 2 hours at 37° C. As for the experimental part:
Methods: Proteinase-K (ProtK) was used to assess the stability of OMN71 versus native OMN70 and Bovine Serum Albumin (BSA). 2.5 μg of each protein were incubated with increasing concentrations of 2.5 and 20 ng of ProtK as specified, for 2 hours at 37° C. Samples were boiled at 100° C. for five minutes and separated on 16.5% polyacrylamide gel. The gel was then stained with Coomassie Blue and excess dye was removed overnight.
Results: FIGS. 3A and 3B depict a Coomassie Blue stained gel detecting the following: FIG. 3A: Lanes 1, 2 and 3: […] of OMN70 subjected to 0/2.5/20 ng of Proteinase-K (ProtK), respectively. Lanes 4, 5 and 6: […] of OMN71 subjected to 0/2.5/20 ng of ProtK, respectively. FIG. 3B: Lanes 7, 8 and 9: […] of Bovine Serum Albumin (BSA) subjected to 0/2.5/20 ng of ProtK, respectively.

Chain of Proteinase-K (ProtK) (P06873 106-384, species assumed): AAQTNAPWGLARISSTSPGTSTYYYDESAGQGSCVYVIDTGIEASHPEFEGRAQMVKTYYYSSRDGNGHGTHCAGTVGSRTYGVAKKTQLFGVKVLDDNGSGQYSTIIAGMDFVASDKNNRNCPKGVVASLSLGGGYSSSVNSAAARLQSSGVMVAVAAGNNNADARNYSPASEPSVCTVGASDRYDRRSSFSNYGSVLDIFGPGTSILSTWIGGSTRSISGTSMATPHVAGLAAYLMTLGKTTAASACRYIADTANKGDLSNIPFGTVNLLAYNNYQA

By MIC is commonly meant the lowest concentration found to suppress growth. In the case of `CC(C)C[C@@H](NC(=O)[C@H](N)Cc1ccccc1)C(=O)N[C@H](CC(N)=O)C(=O)N[C@H](C)C(=O)N[C@H](CC(C)C)C(=O)N[C@H](CCCCN)C(=O)N[C@H](CC(N)=O)C(=O)N[C@H](Cc1ccccc1)C(=O)N[C@H](C)C(=O)N[C@H](CCCCN)C(=O)N[C@@H](C(=O)N[C@H](C)C(=O)NCC(=O)N[C@H](CCCCN)C(=O)N[C@H](CCCNC(=N)N)C(=O)N[C@H](CC(C)C)C(=O)N[C@H](CCCCN)C(=O)N[C@H](CO)C(=O)N[C@H](CC(C)C)C(=O)N[C@H](CC(C)C)C(=O)N[C@H](CC(N)=O)C(N)=O)[C@H](C)O` [OMN71] (H-[dF][dL][dN][dA][dL][dK][dN][dF][dA][dK][dT][dA]G[dK][dR][dL][dK][dS][dL][dL][dN]-NH2; N-terminus assumed), the MIC values is 4 µg/mL (≈ 1.7 µM) in series [1]; 4 µg/mL (≈ 1.7 µM) in series [2]; 4 µg/mL (≈ 1.7 µM) in [3]; 8 µg/mL (≈ 3.41 µM) in series [4]; 16 µg/mL (≈ 6.82 µM) in series [5]; 16 µg/mL (≈ 6.82 µM) in [6]. Further, the MIC values in series [7] is 4 µg/mL (≈ 1.7 µM); in series [8], 16 µg/mL (≈ 6.82 µM). This molecule showed an MIC in [9] of 4 µg/mL (≈ 1.7 µM). For the same molecule, in series [10] (T24 h), the “histopathological findings grade, Heart” value came to 0. Further, in series [10] (T24 h), the “histopathological findings grade, Kidneys” value stood at 0. Moreover, the “histopathological findings grade, Liver” value in series [10] (T24 h) is 0. In series [10] (T24 h), the “histopathological findings grade, Lungs” value is 0. Moreover, the “histopathological findings grade, Spleen” value in series [10] (T24 h) was found to be 0. In series [10] (at T24h), the mortality result was “No mortality”. In series [10] (monitored for an additional week), the “mortality or other adverse effects” value was “no mortality or any other adverse effects”. In addition, the “bacterial burden reduction compared to the vehicle-treated group” value in series [11] is roughly 1 log CFU/lungs.

For `CC(C)C[C@@H](NC(=O)[C@H](N)CC(N)=O)C(=O)N[C@H](CC(C)C)C(=O)N[C@H](CO)C(=O)N[C@H](CCCCN)C(=O)N[C@H](CC(C)C)C(=O)N[C@H](CCCNC(=N)N)C(=O)N[C@H](CCCCN)C(=O)NCC(=O)N[C@H](C)C(=O)N[C@@H](C(=O)N[C@H](CCCCN)C(=O)N[C@H](C)C(=O)N[C@H](Cc1ccccc1)C(=O)N[C@H](CC(N)=O)C(=O)N[C@H](CCCCN)C(=O)N[C@H](CC(C)C)C(=O)N[C@H](C)C(=O)N[C@H](CC(N)=O)C(=O)N[C@H](CC(C)C)C(=O)N[C@H](Cc1ccccc1)C(N)=O)[C@H](C)O` [OMN72], the MIC values in series [1] amounted to 32 µg/mL (≈ 13.6 µM); in [2] it was 32 µg/mL (≈ 13.6 µM); in series [3] it was 32 µg/mL (≈ 13.6 µM); in series [4], 16 µg/mL (≈ 6.82 µM); in series [5], 32 µg/mL (≈ 13.6 µM); in series [6], 64 µg/mL (≈ 27.3 µM). Besides, the MIC values came to 16 µg/mL (≈ 6.82 µM) in series [7] and 64 µg/mL (≈ 27.3 µM) in series [8].

For the molecule Bovine Serum Albumin [BSA], the figures for the “degradation by ProtK (gel band)” value in [12] (2.5 ng ProtK) and in series [12] (20 ng ProtK) were “partially degrade” and “completely degrade”, respectively.

Turning to “FLNALKNFAKTAGKRLKSLLN-NH2 [OMN70, Cyanophlyctin, reference compound]”, the MIC values in series [1] was 4 µg/mL; in series [2], 8 µg/mL; in series [3] it was 16 µg/mL; in series [4], 8 µg/mL; in series [5], 16 µg/mL; in [6], 16 µg/mL. Further, the results for the MIC values in series [7] and in series [8] were 8 µg/mL and 16 µg/mL, respectively.
